Legend:
[1] = tested on: Mycobacterium tuberculosis; test: Antibacterial activity against wild type Mycobacterium tuberculosis H37Rv-LP DREAM8 strain expressing codon-optimized DsRed assessed growth inhibition incubated for 5 days by fluorescence spectrophotometric assay; type: functional; details: H37Rv-LP DREAM8, 120 h, time 5 day
[2] = Selectivity index, ratio of IC50 for cytotoxicity against human HepG2 cells to IC90 for antibacterial activity against wild type Mycobacterium tuberculosis H37Rv-LP DREAM8 strain expressing codon-optimized DsRed; type: toxicity, cell-based
[3] = Cytotoxicity against human HepG2 cells assessed as cell growth inhibition incubated for 3 days by CellTiter-Glo reagent-based luminescence assay; type: toxicity

SMILES	IC90 [1] [µM]	selectivity ratio [2]	IC50 at 3 days [3] [µM]
COc1ccc(-c2cc(C(F)(F)F)c3c(N)c(C(=O)NC45CC6CC(CC(O)(C6)C4)C5)sc3n2)cc1	7.5	3	19
COc1ccc(-c2cc(C(F)(F)F)c3c(N)c(C(=O)NC45CC6CC(CC(C6)C4)C5)sc3n2)cc1	1.1	< 91	> 100
COc1ccc(-c2cc(C(F)(F)F)c3c(N)c(C(=O)N4CCCC4)sc3n2)cc1	> 50		> 50
COc1ccc(-c2cc(C)c3c(N)c(C(=O)Nc4cccc(C)c4C)sc3n2)cc1	> 100		27
COc1ccc(-c2cc(C(F)(F)F)c3c(N)c(C(=O)N4CC(C)OC(C)C4)sc3n2)cc1 (centres undefined)	> 50	< 1	44
COc1ccc(-c2cc(C(F)(F)F)c3c(N)c(C(=O)Nc4ccc(C)c(C)c4)sc3n2)cc1	> 100	< 1	79
COc1ccc(-c2ccc3c(N)c(C(=O)Nc4cccc(C)c4C)sc3n2)cc1	> 100		> 100
Cc1cccc(NC(=O)c2sc3nc(-c4cccs4)cc(C(F)(F)F)c3c2N)c1	> 100		32
COc1ccc(-c2cc(C(F)(F)F)c3c(N)c(C(=O)Nc4c(C)cccc4C)sc3n2)cc1	> 100		> 100
COc1ccc(-c2cc(C(F)(F)F)c3c(N)c(C(=O)NCc4cccc(C)c4C)sc3n2)cc1	1.3	38	50
Nc1c(C(=O)N2CCOCC2)sc2nc(-c3cccnc3)ccc12	> 100		> 100
CN(C)C(=O)c1sc2ncccc2c1N	> 100		> 100
Cc1cccc(CNC(=O)c2sc3nc(-c4ccc5c(c4)OCO5)cc(C(F)(F)F)c3c2N)c1C	> 100		44
Nc1c(C(=O)N2CCOCC2)sc2nc(-c3ccc(F)cc3)ccc12	> 100		41
COc1ccc(-c2cc(C(F)(F)F)c3c(N)c(C(=O)NC(C)c4ccccc4)sc3n2)cc1 (centres undefined)	0.63	83	52
COc1ccc(-c2cc(C(F)(F)F)c3cc(C(=O)NC(C)c4ccccc4)sc3n2)cc1 (centres undefined)	2.5		> 100
Nc1c(C(=O)NC23CC4CC(CC(C4)C2)C3)sc2nc(-c3ccc4c(c3)OCO4)cc(C(F)(F)F)c12	0.68		81
COc1ccc(-c2cc(C(F)(F)F)c3c(N)c(C(=O)NCCc4ccccc4)sc3n2)cc1	> 100	< 1	23

SMILES	IC90 [1] [µM]	selectivity ratio [2]	IC50 at 3 days [3] [µM]
COc1ccc(-c2cc(C(F)(F)F)c3c(N)c(C(=O)NCc4ccccc4C)sc3n2)cc1	2.4	10	23
COc1ccc(-c2cc(C(F)(F)F)c3c(N)c(C(=O)NC(C)C4CCCCC4)sc3n2)cc1 (centres undefined)	1.1	> 91	> 100
Cc1cccc(NC(=O)c2sc3nc(-c4ccccc4)cc(C(F)(F)F)c3c2N)c1C	> 100		> 100
Nc1c(C(=O)Nc2cccnc2)sc2nc(-c3ccccc3)cc(C(F)(F)F)c12	> 100		> 100
COc1ccc(-c2cc(C(F)(F)F)c3c(N)c(C(=O)N4CC5(CCOC5)C4)sc3n2)cc1	> 50	< 1	33
CCC(NC(=O)c1sc2nc(-c3ccc(OC)cc3)cc(C(F)(F)F)c2c1N)c1ccccc1 (centres undefined)	0.74	> 135	> 100
COc1ccc(-c2ccc3c(N)c(C(=O)N4CCOCC4)sc3n2)cc1	> 100		63
COc1ccc(-c2cc(C(F)(F)F)c3c(N)c(C(=O)Nc4cccc(C)c4OC)sc3n2)cc1	> 100		> 100
Nc1c(C(=O)NCc2ccc(F)cc2)sc2ncccc12	> 100		> 100
COc1ccc(-c2ccc3c(N)c(C(=O)N4CCOCC4)sc3n2)cc1OC	> 100		> 100
COc1ccc(-c2cc(C(F)(F)F)c3c(N)c(C(=O)N4C5CCCC4COC5)sc3n2)cc1	> 100	< 1	42
COc1ccc(-c2cc(C(F)(F)F)c3c(N)c(C(=O)NC4CC5(C4)CN(C(=O)OC(C)(C)C)C5)sc3n2)cc1	> 100	< 1	12
Nc1c(C(=O)NCc2ccccc2)sc2ncccc12	> 100		> 100
Nc1c(C(=O)Nc2ccccc2F)sc2nc(-c3ccccc3)cc(C(F)(F)F)c12	> 100		> 100
COc1ccc(-c2cc(C(F)(F)F)c3c(N)c(C(=O)NC45CC(C4)C5)sc3n2)cc1	> 50	< 1	36
Cc1ccc(NC(=O)c2sc3nc(C)cc(C(F)(F)F)c3c2N)cc1	> 100		31
Nc1c(C(=O)N2CCOCC2)sc2nc(-c3ccccc3)ccc12	> 100		56
